The record followed here is US10669269B2, “Substituted N-(1H-indazol-4-yl)imidazo[1,2-a]pyridine-3-carboxamide compounds as type III receptor tyrosine kinase inhibitors” (ARRAY BIOPHARMA INC., priority 2010, dated 2020).

The target in one experiment is T1, c-KIT (Homo sapiens, UniProt P10721).
T1 construct: M-07e cells (human acute megakaryoblastic leukemia cell line) were serum-starved for 4 hours; endogenous in cells; host or cells: M-07e cells (human acute megakaryoblastic leukemia cell line)
Nature of the experiment: c-KIT Cell-Based Assay (Example D). The settings on record: averaged IC50; phospho-c-KIT in M-07e cells stimulated with 150 ng/ml recombinant human SCF; read-out: cKIT Cell ELISA IC50. The procedure, abridged: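 M-07e cells serum-starved 4 h, treated 1 h with compound (9-point, 3-fold dilutions, top dose typically 5,000 nM) at 37° C, then stimulated 4 min with 150 ng/ml SCF. Phospho-c-KIT in lysates quantified by ELISA against a standard curve; IC50 from 4-parameter logistic fit as 50% of control.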

A further experiment concerns the target T2, cFMS (Homo sapiens, UniProt P07333).
T2 construct: THP-1 cells (human acute monocytic leukemia cell line) were serum-starved for 4 hours; endogenous in cells; host or cells: THP-1 cells (human acute monocytic leukemia cell line)
The experiment in a line: cFMS Cell-Based Assay (Example C). Conditions: averaged IC50; phospho-cFMS in THP-1 cells stimulated with 250 ng/mL recombinant human MCSF; read-out: cFMS Cell ELISA IC50. The procedure, abridged:
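THP-1 cells serum-starved 4 h, then treated 1 h with compound (9-point, 3-fold series, top dose typically 5,000 nM) at 37 °C, then stimulated 1 min with 250 ng/mL recombinant human MCSF. Phospho-cFMS in lysates quantified by capture ELISA against a purified phospho-protein standard curve. IC50 at 50 percent of control, 4-parameter logistic fit.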

The next experiment addresses T3, PDGFR beta (Homo sapiens, UniProt P09619).
T3 construct: endogenous in cells; host or cells: HS27 human fibroblast cell line
The experiment in a line: Phospho PDGFR LICOR Cell Assay (Example B). Conditions: averaged IC50; PDGFR beta phosphorylation in HS27 human fibroblast cell line, PDGF-BB stimulation 10 minutes, normalized to total ERK. It counts as cell-based. The procedure, abridged:
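HS27 human fibroblasts pretreated 1 h with compound, then stimulated 10 min with PDGF-BB. Fixed, permeabilized cells immunostained for phospho-PDGFRβ and total ERK and read by two-colour infrared fluorescence, with phospho signal normalized to ERK. IC50 = 50% of control from 4-parameter logistic fit.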

Structures can show the parent of a compound that is named as a salt.

T1 sequence (P10721 26-976): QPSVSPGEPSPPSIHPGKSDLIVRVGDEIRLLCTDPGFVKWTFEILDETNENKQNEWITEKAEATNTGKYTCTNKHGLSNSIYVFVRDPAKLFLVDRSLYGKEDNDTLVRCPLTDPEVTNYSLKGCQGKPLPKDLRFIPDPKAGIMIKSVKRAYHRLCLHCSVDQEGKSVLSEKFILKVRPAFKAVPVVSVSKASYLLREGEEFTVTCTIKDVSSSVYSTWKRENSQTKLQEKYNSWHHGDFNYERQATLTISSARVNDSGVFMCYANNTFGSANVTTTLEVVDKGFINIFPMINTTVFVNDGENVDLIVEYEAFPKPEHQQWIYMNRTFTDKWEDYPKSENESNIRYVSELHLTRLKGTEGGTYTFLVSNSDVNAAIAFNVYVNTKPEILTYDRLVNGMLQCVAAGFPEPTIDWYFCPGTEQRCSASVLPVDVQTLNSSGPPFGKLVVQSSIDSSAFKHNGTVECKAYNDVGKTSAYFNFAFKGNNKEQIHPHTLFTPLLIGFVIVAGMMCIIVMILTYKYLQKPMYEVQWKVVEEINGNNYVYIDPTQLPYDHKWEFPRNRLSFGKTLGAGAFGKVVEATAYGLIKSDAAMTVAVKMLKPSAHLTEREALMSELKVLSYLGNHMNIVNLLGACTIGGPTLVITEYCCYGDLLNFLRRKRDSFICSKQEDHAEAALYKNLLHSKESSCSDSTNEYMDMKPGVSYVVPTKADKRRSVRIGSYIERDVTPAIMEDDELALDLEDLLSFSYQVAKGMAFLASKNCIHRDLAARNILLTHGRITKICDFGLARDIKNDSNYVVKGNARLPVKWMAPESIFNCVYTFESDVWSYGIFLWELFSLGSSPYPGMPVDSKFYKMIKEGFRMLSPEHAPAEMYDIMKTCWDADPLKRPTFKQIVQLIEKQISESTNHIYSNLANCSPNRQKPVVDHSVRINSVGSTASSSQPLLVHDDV
T2 sequence (P07333 20-972): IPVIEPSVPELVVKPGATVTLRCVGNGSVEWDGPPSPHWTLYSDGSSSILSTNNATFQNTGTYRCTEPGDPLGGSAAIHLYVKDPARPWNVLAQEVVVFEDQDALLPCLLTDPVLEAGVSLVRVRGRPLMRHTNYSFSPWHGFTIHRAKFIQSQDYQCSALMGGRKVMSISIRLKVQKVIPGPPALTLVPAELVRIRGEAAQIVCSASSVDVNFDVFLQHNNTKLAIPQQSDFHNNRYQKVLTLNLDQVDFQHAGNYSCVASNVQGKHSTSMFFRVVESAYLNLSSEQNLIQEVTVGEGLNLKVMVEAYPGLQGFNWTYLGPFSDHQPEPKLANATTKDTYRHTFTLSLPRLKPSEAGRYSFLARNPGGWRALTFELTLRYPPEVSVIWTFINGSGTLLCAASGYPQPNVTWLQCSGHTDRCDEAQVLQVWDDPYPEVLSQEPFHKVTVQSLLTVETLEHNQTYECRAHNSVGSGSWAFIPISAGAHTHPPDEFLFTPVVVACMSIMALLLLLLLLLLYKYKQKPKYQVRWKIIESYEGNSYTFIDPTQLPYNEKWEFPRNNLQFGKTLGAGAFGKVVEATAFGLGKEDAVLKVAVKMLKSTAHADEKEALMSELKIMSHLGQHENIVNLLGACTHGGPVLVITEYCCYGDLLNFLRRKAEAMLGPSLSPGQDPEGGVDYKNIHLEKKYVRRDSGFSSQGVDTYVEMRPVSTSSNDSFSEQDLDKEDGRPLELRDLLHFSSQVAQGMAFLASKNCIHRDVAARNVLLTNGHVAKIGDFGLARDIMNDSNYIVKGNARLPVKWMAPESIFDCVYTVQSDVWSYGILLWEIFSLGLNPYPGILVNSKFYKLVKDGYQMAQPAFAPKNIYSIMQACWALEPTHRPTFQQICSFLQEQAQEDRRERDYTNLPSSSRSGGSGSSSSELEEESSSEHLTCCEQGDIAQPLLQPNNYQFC
T3 sequence (P09619 33-1106): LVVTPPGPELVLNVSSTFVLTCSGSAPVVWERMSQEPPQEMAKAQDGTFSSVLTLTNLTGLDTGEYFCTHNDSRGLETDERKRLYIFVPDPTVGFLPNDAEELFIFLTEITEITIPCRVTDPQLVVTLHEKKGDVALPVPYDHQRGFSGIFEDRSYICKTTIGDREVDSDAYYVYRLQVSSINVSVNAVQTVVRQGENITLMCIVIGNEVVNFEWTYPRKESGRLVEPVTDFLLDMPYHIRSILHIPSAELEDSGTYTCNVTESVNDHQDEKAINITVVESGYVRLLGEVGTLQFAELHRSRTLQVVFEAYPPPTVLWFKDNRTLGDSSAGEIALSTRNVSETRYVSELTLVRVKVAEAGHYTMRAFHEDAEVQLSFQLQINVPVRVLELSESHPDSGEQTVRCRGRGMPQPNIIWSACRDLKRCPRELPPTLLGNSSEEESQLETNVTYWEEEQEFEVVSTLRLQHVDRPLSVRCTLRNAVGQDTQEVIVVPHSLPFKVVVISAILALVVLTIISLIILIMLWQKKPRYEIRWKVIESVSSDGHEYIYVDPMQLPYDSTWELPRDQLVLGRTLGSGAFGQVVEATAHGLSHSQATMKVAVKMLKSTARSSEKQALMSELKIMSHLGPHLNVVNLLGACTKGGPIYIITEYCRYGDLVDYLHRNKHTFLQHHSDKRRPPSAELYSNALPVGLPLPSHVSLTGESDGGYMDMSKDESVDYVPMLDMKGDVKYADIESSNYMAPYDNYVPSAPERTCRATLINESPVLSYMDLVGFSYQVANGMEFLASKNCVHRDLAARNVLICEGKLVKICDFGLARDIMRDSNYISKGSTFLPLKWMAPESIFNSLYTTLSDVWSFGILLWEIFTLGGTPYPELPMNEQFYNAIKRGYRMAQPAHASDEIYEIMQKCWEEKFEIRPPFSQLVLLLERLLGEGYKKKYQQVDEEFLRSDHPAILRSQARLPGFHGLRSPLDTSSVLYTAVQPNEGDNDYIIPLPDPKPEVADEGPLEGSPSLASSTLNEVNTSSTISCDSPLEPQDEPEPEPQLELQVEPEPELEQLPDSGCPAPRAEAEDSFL

In the case of `COCCOc1ccn2c(C(=O)Nc3cccc4c3cnn4Cc3cccnc3C)cnc2c1` [Example 118, 7-(2-methoxyethoxy)-N-(1-((2-methylpyridin-3-yl)methyl)-1H-indazol-4-yl)imidazo[1,2-a]pyridine-3-carboxamide], the IC50 was 581 nM at c-KIT, 310 nM at cFMS and 178 nM against PDGFR beta.
The like results for `Cc1nn(Cc2cc(C)n(C(C)C)n2)c2cccc(NC(=O)c3cnc4cc(OCCN5CCN(C)[C@@H](C)C5)ccn34)c12` [Example 29, (S)-7-(2-(3,4-dimethylpiperazin-1-yl)ethoxy)-N-(1-((1-isopropyl-5-methyl-1H-pyrazol-3-yl)methyl)-3-methyl-1H-indazol-4-yl)imidazo[1,2-a]pyridine-3-carboxamide] were, in that order, 162 nM, 28.6 nM and 44.1 nM.
Taken in the same sequence, the figures for `COCCOc1ccn2c(C(=O)Nc3cccc4c3cnn4CC3CCCN(C(=O)OC(C)(C)C)C3)cnc2c1` (stereo not drawn) [Example 116, tert-butyl 3-((4-(7-(2-methoxyethoxy)imidazo[1,2-a]pyridine-3-carboxamido)-1H-indazol-1-yl)methyl)piperidine-1-carboxylate] were 192 nM, 185 nM and 54 nM.
With `COCCOc1ccn2c(C(=O)Nc3cccc4c3cnn4Cc3ccc(OC)cc3)cnc2c1` [Example 114, N-(1-(4-methoxybenzyl)-1H-indazol-4-yl)-7-(2-methoxyethoxy)imidazo[1,2-a]pyridine-3-carboxamide], the results for the half-inhibitory concentration (IC50) on c-KIT, on cFMS and against PDGFR beta were 8.7 nM, 24.6 nM and 9.3 nM, respectively.
The like results for `Cc1cccc(Cn2nc(C)c3c(NC(=O)c4cnc5cc(-c6cnn(C)c6)ccn45)cccc32)n1` [Example 68, N-(3-methyl-1-((6-methylpyridin-2-yl)methyl)-1H-indazol-4-yl)-7-(1-methyl-1H-pyrazol-4-yl)imidazo[1,2-a]pyridine-3-carboxamide] were, in that order, 76.9 nM, 5 nM and 23.2 nM.
Taken in the same sequence, the figures for `CN1CCN(CCOc2ccn3c(C(=O)Nc4cccc5c4cnn5Cc4ccc(C(F)(F)F)cn4)cnc3c2)CC1` [Example 103, 7-(2-(4-Methylpiperazin-1-yl)ethoxy)-N-(1-((5-(trifluoromethyl)pyridin-2-yl)methyl)-1H-indazol-4-yl)imidazo[1,2-a]pyridine-3-carboxamide trihydrochloride] were 7.2 nM, 7.3 nM and 2.7 nM.
Taken in the same sequence, the figures for `Cc1ncc(Cn2ncc3c(NC(=O)c4cnc5cc(OCCN6CCN(C)CC6)ccn45)cccc32)s1` [Example 149, 7-(2-(4-methylpiperazin-1-yl)ethoxy)-N-(1-((2-methylthiazol-5-yl)methyl)-1H-indazol-4-yl)imidazo[1,2-a]pyridine-3-carboxamide] were 4.8 nM, 2.2 nM and 1 nM.
As for `Cc1cccc(Cn2nc(C)c3c(NC(=O)c4cnc5cc(CCN6CCN(C)CC6)ccn45)cccc32)n1` [Example 78, N-(3-methyl-1-((6-methylpyridin-2-yl)methyl)-1H-indazol-4-yl)-7-(2-(4-methylpiperazin-1-yl)ethyl)imidazo[1,2-a]pyridine-3-carboxamide], the half-inhibitory concentration (IC50) was found to be 4070 nM at c-KIT, 17.3 nM on cFMS and 3430 nM on PDGFR beta.
Take `Cc1nn(Cc2csc(C(C)C)n2)c2cccc(NC(=O)c3cnc4cc(OCCN5CC6(CN(C)C6)C5)ccn34)c12` [Example 13, N-(1-((2-isopropylthiazol-4-yl)methyl)-3-methyl-1H-indazol-4-yl)-7-(2-(6-methyl-2,6-diazaspiro[3.3]heptan-2-yl)ethoxy)imidazo[1,2-a]pyridine-3-carboxamide]: the values for the IC50 at c-KIT, on cFMS and at PDGFR beta were 76.3 nM, 12.9 nM and 11.3 nM, respectively.
`Cc1nn(Cc2csc(C(C)C)n2)c2cccc(NC(=O)c3cnc4cc(OCCN5CCN(C(C)C)CC5)ccn34)c12` [Example 15, 7-(2-(4-isopropylpiperazin-1-yl)ethoxy)-N-(1-((2-isopropylthiazol-4-yl)methyl)-3-methyl-1H-indazol-4-yl)imidazo[1,2-a]pyridine-3-carboxamide]: the IC50 on c-KIT stood at 60.6 nM; on cFMS, 12 nM; at PDGFR beta it was 46.2 nM.
Turning to `COCCOc1ccn2c(C(=O)Nc3cccc4c3cnn4Cc3ccc(C)nc3)cnc2c1` [Example 124, 7-(2-methoxyethoxy)-N-(1-((6-methylpyridin-3-yl)methyl)-1H-indazol-4-yl)imidazo[1,2-a]pyridine-3-carboxamide], the IC50 on c-KIT was found to be 9.5 nM; on cFMS, 8.3 nM; against PDGFR beta, 6.9 nM.
Taken in the same sequence, the figures for `COCCOc1ccn2c(C(=O)Nc3cccc4c3cnn4CC3CCCN(C(C)=O)C3)cnc2c1` (stereo not drawn) [Example 132, N-(1-((1-acetylpiperidin-3-yl)methyl)-1H-indazol-4-yl)-7-(2-methoxyethoxy)imidazo[1,2-a]pyridine-3-carboxamide] were 604 nM, 134 nM and 170 nM.
Regarding `CN1CCN(CCOc2ccn3c(C(=O)Nc4cccc5c4cnn5Cc4ccc5[nH]cnc5c4)cnc3c2)CC1` [Example 108, N-(1-((1H-benzo[d]imidazol-5-yl)methyl)-1H-indazol-4-yl)-7-(2-(4-methylpiperazin-1-yl)ethoxy)imidazo[1,2-a]pyridine-3-carboxamide dihydrochloride], the IC50 on c-KIT worked out at 181 nM; at cFMS it was 66.7 nM; at PDGFR beta, 142 nM.
As for `N#Cc1ccn2c(C(=O)Nc3cccc4c3cnn4Cc3ccccc3)cnc2c1` [Example 152, N-(1-benzyl-1H-indazol-4-yl)-7-cyanoimidazo[1,2-a]pyridine-3-carboxamide], the IC50 on c-KIT is 165 nM; on cFMS, 117 nM; against PDGFR beta it was 296 nM.
The like results for `COCCOc1ccn2c(C(=O)Nc3cccc4c3cnn4Cc3cccc(OCc4ccccc4)c3)cnc2c1` [Example 119, N-(1-(3-(benzyloxy)benzyl)-1H-indazol-4-yl)-7-(2-methoxyethoxy)imidazo[1,2-a]pyridine-3-carboxamide] were, in that order, 23 nM, 26.3 nM and 17.4 nM.
The like results for `Cc1cccc(Cn2nc(C)c3c(NC(=O)c4cnc5cc(OCCN6CCN(C)CC6)ccn45)cccc32)n1` [Example 89, N-(3-methyl-1-((6-methylpyridin-2-yl)methyl)-1H-indazol-4-yl)-7-(2-(4-methylpiperazin-1-yl)ethoxy)imidazo[1,2-a]pyridine-3-carboxamide tetrahydrochloride] were, in that order, 1050 nM, 7.3 nM and 845 nM.
The like results for `CCOc1cccc(Cn2ncc3c(NC(=O)c4cnc5cc(OCCN6CCN(C)CC6)ccn45)cccc32)n1` [Example 105, N-(1-((6-ethoxypyridin-2-yl)methyl)-1H-indazol-4-yl)-7-(2-(4-methylpiperazin-1-yl)ethoxy)imidazo[1,2-a]pyridine-3-carboxamide] were, in that order, 2.7 nM, 3.3 nM and 2.6 nM.
For `CN1CCN(CCOc2ccn3c(C(=O)Nc4cccc5c4cnn5Cc4cccc(C(=O)N(C)C)c4)cnc3c2)CC1` [Example 97, N-(1-(3-(dimethylcarbamoyl)benzyl)-1H-indazol-4-yl)-7-(2-(4-methylpiperazin-1-yl)ethoxy)imidazo[1,2-a]pyridine-3-carboxamide dihydrochloride], the IC50 came out at 25.7 nM at c-KIT, 10.4 nM on cFMS and 9.6 nM against PDGFR beta.
Regarding `COCCOc1ccn2c(C(=O)Nc3cccc4c3cnn4Cc3cccc(OC)c3)cnc2c1` [Example 140, N-(1-(3-methoxybenzyl)-1H-indazol-4-yl)-7-(2-methoxyethoxy)imidazo[1,2-a]pyridine-3-carboxamide], the IC50 came to 4.8 nM on c-KIT, 3.1 nM at cFMS and 2.5 nM against PDGFR beta.
The like results for `Cc1cccc(Cn2nc(C)c3c(NC(=O)c4cnc5cc(OCCN(C)C)ccn45)cccc32)n1` [Example 60, 7-(2-(dimethylamino)ethoxy)-N-(3-methyl-1-((6-methylpyridin-2-yl)methyl)-1H-indazol-4-yl)imidazo[1,2-a]pyridine-3-carboxamide] were, in that order, 4560 nM, 35.6 nM and 5000 nM.
Taken in the same sequence, the figures for `COCCOc1ccn2c(C(=O)Nc3cccc4c3cnn4CC3CCCNC3)cnc2c1` (stereo not drawn) [Example 131, 7-(2-methoxyethoxy)-N-(1-(piperidin-3-ylmethyl)-1H-indazol-4-yl)imidazo[1,2-a]pyridine-3-carboxamide hydrochloride] were 5000 nM, 993 nM and 682 nM.
